Assay results taken from PMC4980838 (European journal of medicinal chemistry, 2010).

Key:
[1] = target: recombinant human PDE5 enzyme (Homo sapiens, UniProt O76074); assay: Phosphodiesterase assay; format: biochemical
[2] = system: human HT-29 colon tumor cell line; assay: Tumor cell growth inhibition, HT-29; format: cell-based; settings: HT-29, 72 h, read-out: Growth inhibition IC50

COC(=O)[C@@H]1Cc2c([nH]c3ccccc23)[C@@H](c2ccccc2Br)N1C(=O)CCl [Compound 6d, Methyl (1R,3S)-1-(2-bromophenyl)-2-(2-chloroacetyl)-2,3,4,9-tetrahydro-1H-β-carboline-3-carboxylate]
PDE5 inhibitory activity (in words) [1]: did not show PDE5 inhibitory activity
IC50 [2]: 1600 nM
